This is an account of results in the kinase profiling compilation of Christmann-Franck et al. (2016).

Structures are written as SMILES. Where only a bound is given, the exact number is not on record here.

The assay deals with SGK1 (human) (UniProt O00141). Kind of assay: Flashplate.
Sequence of SGK1 (human) (O00141 whole entry, looked up): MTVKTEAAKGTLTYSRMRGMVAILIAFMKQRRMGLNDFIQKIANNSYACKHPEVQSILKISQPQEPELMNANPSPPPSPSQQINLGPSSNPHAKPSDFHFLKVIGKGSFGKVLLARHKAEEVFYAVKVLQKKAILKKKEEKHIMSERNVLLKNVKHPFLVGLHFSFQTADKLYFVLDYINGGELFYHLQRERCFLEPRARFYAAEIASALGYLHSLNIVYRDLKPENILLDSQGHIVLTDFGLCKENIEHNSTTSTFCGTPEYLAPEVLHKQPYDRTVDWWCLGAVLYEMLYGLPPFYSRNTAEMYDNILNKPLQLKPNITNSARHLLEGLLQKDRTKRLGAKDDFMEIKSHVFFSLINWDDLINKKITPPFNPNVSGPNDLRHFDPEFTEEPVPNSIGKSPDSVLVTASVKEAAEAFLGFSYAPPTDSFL
In turn, `Nc1n[nH]c2cccc(-c3ccc(Br)cc3)c12` showed a Ki of 5.01 µM.

Compound `CSc1nn(-c2ccccn2)c(N)c1C(N)=O` registered a Ki of 6.31 µM.

For `O=C(N[C@H](CO)Cc1ccccc1)c1ccc(-c2ccncc2)cc1F`, the Ki was greater than 10 µM.

Regarding `CC(C)(C)OC(=O)n1ncc2cc(Nc3c(NCc4ccc(S(N)(=O)=O)cc4)c(=O)c3=O)ccc21`, the Ki was greater than 10 µM.

For the compound `O=c1[nH]cc(I)c2nc(-c3cccc(Cl)c3)cn12`, the Ki was 7.94 µM.

In turn, `CC1CSc2c(C(=O)O)c(=O)c3cc(F)c(N4CC[C@@H](N)C4)c(F)c3n21` (stereo not given in full) displayed a Ki greater than 10 µM.

On to `O=C1NC(=S)S/C1=C1\C(=O)Nc2ccc(Br)cc21`, for which the Ki was 2 µM.

`NC(=O)c1cccc(-c2cnc3[nH]cc(-c4ccccc4)c3c2)c1` registered an inhibitory constant (Ki) of 0.126 µM.

As for `O=C1CCCN1Cc1ccc2c(c1)[nH]c(=O)c1cccn12`, the Ki is greater than 10 µM.

With `CNC(=O)c1cnc(N)c2c(-c3ccc(NC(=O)Nc4cccc(Cl)c4)cc3)csc12`, the Ki is 3.16 µM.

In turn, `COC(=O)c1ccccc1-c1ccc2c(c1)Nc1ccccc1NC2=O` registered a Ki greater than 10 µM.

`Cc1ccc(CNc2ccc3nnc(-c4ccccc4)n3n2)cc1` had an inhibition constant (Ki) greater than 10 µM.

In turn, `O=C(Cc1ccccc1Cl)Nc1ccc2cn[nH]c2c1` showed a Ki greater than 10 µM.

On to `Cn1nc(C(F)(F)F)c2c(=O)c3cc(Cl)ccc3n(O)c21`, for which the Ki is greater than 10 µM.

The compound `Cn1c(NC[C@@H](N)Cc2ccccc2)nc(-c2ccncc2)c(-c2ccc3ccccc3c2)c1=O` displayed a Ki greater than 7.94 µM.

For `OCCNc1cc2cc(-c3ccncc3)ccc2cn1`, the inhibition constant (Ki) is greater than 10 µM.

On to `Nc1ncc(/C=C/C(=O)NCCCn2ccnc2)c2scc(-c3ccc(Br)cc3)c12`, for which the Ki is greater than 10 µM.

On to `O[C@H]1CC[C@H](Nc2cc(Cl)nc(-c3c[nH]c4ncccc34)n2)CC1`, for which the Ki is 1 µM.

As for `COc1cccc([C@@H](C)NC(=O)c2cnc(-c3ccncc3)s2)c1`, the Ki stood at 0.501 µM.

For the compound `CC(C)n1nnc2ccc(-c3c(-c4ccc(F)cc4F)nc4occn34)cc21`, the Ki was greater than 10 µM.

`CCN1CCN(CCCC(=O)Nc2n[nH]c3nnc(-c4cccc(F)c4F)cc23)CC1` had a Ki greater than 10 µM.

In the case of `CC(C)N(C)C(=O)c1c(-c2ccc3[nH]ncc3c2)nnn1Cc1ccccc1`, the Ki was 0.631 µM.

The compound `N[C@H](COc1cncc(-c2ccc3c(c2)/C(=C/c2ccco2)C(=O)N3)c1)Cc1c[nH]c2ccccc12` gave a Ki of 0.0251 µM.

On to `COc1ccc(/C=N/Nc2ncnc3c2[nH]c2ccccc23)cc1OC`, for which the Ki is greater than 10 µM.

Regarding `CC(C)Oc1nccn2c(-c3ccnc(NCC(C)(C)O)n3)c(-c3ccc(F)cc3F)nc12`, the Ki is greater than 10 µM.

`O=C(c1cc(-c2ccc3[nH]ncc3c2)on1)N1CCCCC1` gave a Ki greater than 10 µM.

`CC(C)NC(=O)COc1cccc(-c2nc(Nc3ccc4[nH]ncc4c3)c3ccccc3n2)c1`: the Ki was greater than 10 µM.

As to `CO[C@@H](C(=O)N1Cc2[nH]nc(NC(=O)c3ccc(N4CCN(C)CC4)cc3)c2C1)c1ccccc1`, the Ki was greater than 10 µM.

For `N#Cc1ncc2nc1OCCCCCOc1cc(OCCCO)c(Cl)cc1NC(=O)N2`, the Ki is greater than 10 µM.

Compound `N[C@@H](Cc1cccc2ccccc12)C(=O)Nc1cncc(/C=C/c2ccncc2)c1` had a Ki greater than 10 µM.

The compound `CCn1c2cc(Cl)c(F)cc2c(=O)c2c(=O)o[nH]c21` had a Ki greater than 10 µM.

In turn, `O=C1Cc2c([nH]c3ccc(Br)cc23)-c2ncccc2N1` came in with an inhibition constant Ki greater than 10 µM.

Regarding `CNC(=O)c1ccccc1Nc1nc(Nc2ccc(N3CCOCC3)cc2OC)ncc1Cl`, the Ki is greater than 7.94 µM.

Compound `CCS(=O)(=O)c1ccc(-c2cncc3sc(C(N)=O)cc23)cc1` gave a Ki of 3.98 µM.

`CCN(CC)CC#Cc1cnc(N)c2c(-c3ccc(NC(=O)Nc4cccc(C)c4)cc3)csc12` registered a Ki greater than 10 µM.

On to `Cc1cc(C)cc(NC(=O)Nc2ccc(NC(=O)c3csc4ncnc(N)c34)cc2)c1`, for which the Ki was greater than 10 µM.

For `Cc1cnc(-c2cnc(NCCNc3ccc(C#N)cn3)nc2-c2ccc(Cl)cc2Cl)[nH]1`, the Ki was greater than 10 µM.

Compound `COc1ccc(NC(=O)Nc2ccc(-c3cccc4onc(N)c34)cc2)cc1Cl` displayed a Ki greater than 10 µM.

In turn, `CN1CCC(C(=O)n2nc(N)c3cc(-c4cn(Cc5ccccc5)nn4)ccc32)CC1` had a Ki of 7.94 µM.

Compound `O=c1c(NCCc2ccc(Oc3ccccc3)cc2)c(Nc2ccncc2)c1=O` registered a Ki greater than 10 µM.

`COc1ccc(C(=O)Nc2n[nH]c3ccc(-c4cn(Cc5ccccc5)nn4)cc23)cc1OC`: the Ki turned out to be 1 µM.

In the case of `COc1cccc(C(=O)Nc2cnc3[nH]cc(-c4ccccc4)c3c2)c1`, the Ki was found to be 2 µM.

Turning to `CNCc1ccc(-c2[nH]c3cc(F)cc4c3c2CCNC4=O)cc1`, the Ki is greater than 10 µM.

Take `COc1ccc(-c2ccc(NC(=O)Nc3cc(F)cc(F)c3)cc2)c2c(N)noc12`: the Ki was greater than 10 µM.

Consider `CCOC(=O)C1=C(N)n2c(s/c(=C\c3cccs3)c2=O)=C(C(N)=O)C1c1cccs1` (stereo not given), for which the Ki was greater than 10 µM.

`O=C(O)c1cc2c(-c3ccccc3)cncc2s1` had a Ki of 3.98 µM.

For `NC(=O)c1sc(-n2cnc3ccccc32)cc1OCc1ccccc1C(F)(F)F`, the Ki is greater than 10 µM.

The compound `Nc1ncnc2c1c(-c1cccc(OCc3ccccc3)c1)cn2[C@H]1C[C@H](CN2CCCC2)C1` gave a Ki greater than 10 µM.

With `CCCOc1nc(NC(C)=O)cc(N)c1C#N`, the Ki is greater than 10 µM.

As for `Cn1cc(-c2cnc(N)c3c(-c4ccc(NC(=O)Nc5ccc(OC(F)F)cc5)cc4)csc23)cn1`, the inhibitory constant (Ki) is greater than 10 µM.

For the compound `Fc1ccc(-c2nc3cnccn3c2-c2ccnc(NCC3CC3)n2)cc1`, the Ki was greater than 10 µM.

In turn, `O=C1Cc2c([nH]c3ccc(Br)cc23)-c2ccccc2N1` displayed a Ki greater than 10 µM.

For `CC(C)(C)OC(=O)n1cc(-c2cncn2C2CCCCC2)c2ccccc21`, the Ki was greater than 10 µM.

Compound `CC1=NN(c2cccc(Br)c2)C(=O)/C1=C/c1c(C)c(C#N)c2nc3ccccc3n2c1O` returned a Ki greater than 10 µM.

As to `CCCn1cc(-c2cnc(N)c3c(-c4ccc(NC(=O)Nc5cccc(F)c5)cc4)csc23)cn1`, the Ki was greater than 10 µM.

In turn, `Cc1cc(NC(=O)CCNC(=O)Nc2nc(C)c(-c3ccc(-n4cccn4)cc3)s2)no1` yielded a Ki greater than 10 µM.

Compound `CC(C)(O)CNc1nccc(-c2c(-c3ccc(F)cc3F)nc3c(CC4CC4)nccn23)n1` returned a Ki greater than 10 µM.

For `O=c1[nH]c2ccc(Cl)cc2c(-c2ccccc2)c1C1=NNC(c2ccccc2)C1` (stereo not given), the Ki is greater than 10 µM.

Compound `O=C(Nc1cnccn1)Nc1ccnc2c(C(F)(F)F)cccc12` returned a Ki greater than 10 µM.

Take `Cc1cccc(NC(=O)Nc2ccc(-c3cccc4c3CNC4=O)cc2)c1`: the Ki was greater than 10 µM.

The compound `Cc1c(-c2ccc3[nH]nc(N)c3c2)nnn1Cc1ccccc1` registered a Ki of 0.316 µM.

In turn, `Cc1cccc(NC(=O)Nc2ccc(-c3cccc4[nH]nc(N)c34)cc2)c1` came in with a Ki of 1 µM.

Compound `O=C(N[C@H](CO)Cc1ccccc1)c1ccc(-c2ccncc2)cc1` returned a Ki of 6.31 µM.

Regarding `Nc1ncnc2c1c(-c1cccc(OCc3ccccc3)c1)cn2[C@H]1CC[C@H](N2CCCC2)CC1`, the Ki was greater than 10 µM.

Compound `CCOc1nc(NC(=O)Cc2cc(OC)ccc2OC)cc(N)c1C#N` had a Ki greater than 10 µM.

In turn, `Cc1cccc(NC(=O)Nc2ccc(-c3coc4ncnc(N)c34)cc2)c1` showed a Ki of 2 µM.

Compound `CCN(CC)CCOc1ccc(-c2nc3c(C(N)=O)cccc3[nH]2)cc1` showed a Ki greater than 10 µM.

`NC(=O)c1cccc2c1Nc1nnc(Cl)cc1C(=O)N2` came in with a Ki of 7.94 µM.

Turning to `CCOC(=O)c1cn(-c2ccc(O)cc2C)c2cc(-c3ccncc3)ccc2c1=O`, the Ki is greater than 10 µM.

`COc1ccc(CNc2c(Nc3ccc4[nH]ncc4c3)c(=O)c2=O)cc1` displayed a Ki greater than 10 µM.

As to `NCC1CCC(CNc2nc(NCc3ccccc3Cl)ncc2[N+](=O)[O-])CC1` (stereo not given), the Ki was 5.01 µM.

`Nc1n[nH]c2cccc(-c3ccc(NC(=O)Nc4cc(CO)ccc4F)cc3)c12` came in with a Ki of 0.398 µM.

Regarding `COc1ccc(/C=C2/S/C(=N/c3ccccc3)NC2=O)cc1OC`, the Ki is greater than 10 µM.

`O=C1Nc2ccccc2Nc2nnc(Cl)cc21` showed a Ki of 5.01 µM.

The compound `N[C@H](COc1cncc(-c2ccc3[nH]c(=O)oc3c2)c1)Cc1c[nH]c2ccccc12` came in with a Ki of 5.01 µM.

For `CC(C)(CO)c1nnc2ccc(-c3c(-c4ccc(F)cc4F)nc4n3CCC4)nn12`, the Ki is greater than 10 µM.

`CC1=NN(c2ccc(Cl)c(Cl)c2)C(=O)/C1=C\c1c(C)c(C#N)c2nc3ccccc3n2c1O` had a Ki greater than 10 µM.

For the compound `COc1cc(/C=C2/SC(=S)NC2=O)ccc1O`, the inhibitory constant (Ki) was determined as 3.16 µM.

Compound `CN(c1ccccc1CNc1nc(N)nc2[nH]ccc12)S(C)(=O)=O` displayed a Ki greater than 10 µM.

On to `O=C1Nc2ccc3ncsc3c2/C1=C/Nc1ccc(S(=O)(=O)Nc2ccccn2)cc1`, for which the Ki is 0.0158 µM.

The compound `CC[C@@H]1C(=O)N(C)c2cnc(Nc3ccc(C(=O)NC4CCCCC4)cc3OC)nc2N1C1CCCC1` had a Ki greater than 10 µM.

On to `OCC(CO)Nc1ncnc2[nH]cc(-c3ccccc3)c12`, for which the Ki was found to be 7.94 µM.

With `CC1(C)CC(=O)C2=C(C1)Nc1cc(Cl)ccc1S2`, the Ki was greater than 10 µM.

For `CCCCNC1=NS(=O)N=C1Nc1ccc(F)cc1` (stereo not given), the Ki was greater than 10 µM.

Compound `CC(C)(CO)CNc1nccc(-c2c(-c3ccc(F)cc3)nc3c(Cl)nccn23)n1` displayed a Ki greater than 10 µM.

The compound `O=c1[nH]sc2c1c(=O)c1cc(F)c(NCc3ccccc3)c(F)c1n2C1CC1` registered a Ki greater than 10 µM.

`CNC(=O)C(C)n1cc(-c2cnc(N)c3c(-c4ccc(NC(=O)Nc5ccc(C)cc5)cc4)csc23)cn1` (stereo not given): the Ki was greater than 10 µM.

The compound `Cc1cc(NC(=O)Cc2ccc(-c3cccc4[nH]nc(N)c34)cc2)ccc1F` showed a Ki of 1.26 µM.

In the case of `Cc1ccccc1NC(=O)Nc1ccc2c(c1)CCc1sc3ncnc(N)c3c1-2`, the Ki is greater than 10 µM.

In turn, `Cc1c(O)ccc2c1CCC/C2=N/NC(=O)Cc1cccc2ccccc12` displayed a Ki of 0.501 µM.

In turn, `COc1cc(C=O)c(Cl)cc1NC(=O)Nc1cnc(C#N)cn1` displayed an inhibition constant Ki greater than 10 µM.

In turn, `Cn1cc(-c2cnc(N)c3c(-c4ccc(NC(=O)Nc5cccc(F)c5)cc4)csc23)cn1` gave a Ki of 2 µM.

On to `COc1cc2c(Oc3ccc4[nH]c(C)cc4c3F)ncnc2cc1OCCCN1CCCC1`, for which the Ki is greater than 10 µM.

`N#Cc1ccc(NC(=O)Nc2ccnc3cc(C(F)(F)F)ccc23)nc1` yielded a Ki greater than 10 µM.

Consider `O=C1NCCc2[nH]c(-c3ccnc(/C=C/c4ccccc4)c3)cc21`, for which the Ki amounted to 1 µM.

For orientation: Ki means the equilibrium dissociation constant of an inhibitor or competing ligand from its target.
